Laboratory results reported in patent US20190037899A1, “Intramolecular Trans-Sialidase” (THE INSTITUTE OF FOOD RESEARCH, priority 2016, published 2019).
“And” between values parts separate entries of the source, which are not always exact repeats. Equal values may be shown once. Marks after values point to notes of the source that are not given here.

How the values were obtained:
RgNanH [1] = experiment: Specificity of RgNanH against sialylated oligosaccharides (HPAEC-PAD); assay type: biochemical, Ruminococcus gnavus ATCC 29149; parameters: key to Activity, RgNanH: +: Activity was defined as disappearance of the substrate peak and appearance of a lower molecular weight peak which could correspond to the desialylated substrate; settings: for Activity, RgNanH: 1 mM substrate, 1 nM enzyme, 37° C., pH 6.5, overnight
[2] = test system: AkmNan0625 and AkmNan1835; experiment: Specificity of AkmNan0625 and AkmNan1835 against sialylated oligosaccharides (HPAEC-PAD); assay type: biochemical, Akkermansia muciniphila; parameters: key to Activity, AkmNan0625 and AkmNan1835: +: Activity was defined as disappearance of the substrate peak and appearance of a lower molecular weight peak which could correspond to the desialylated substrate; settings: for Activity, AkmNan0625 and AkmNan1835: 1 mM substrate, 1 nM enzyme, 37° C., pH 6.5, overnight
Source text: All chemicals were obtained from Sigma (St. Louis, US) unless otherwise stated. The Akkermansia muciniphila sialidases, termed here AkmNan0625 and AkmNan1835, were obtained by His-Tag overexpression of their genes (Amuc_0625 and Amuc_1835, respectively (van Passel, M. W. et al. The genome of Akkermansia muciniphila, a dedicated intestinal mucin degrader, and its use in exploring intestinal metagenomes. Plos One 6, e16876 (2011)) in E. coli BL21(DE3) and subsequent purification to homogeneity by immobilised metal affinity chromatography (IMAC) as described below. The sialylated oligosaccharides and OC were obtained from Carbosynth (Berks, UK).

[3] = biological target: T1, Ruminococcus gnavus ATCC 29149 sialidase RgNanH (intramolecular trans-sialidase, IT-sialidase), wild type, full length excluding signal sequence residues 1-25, (Mediterraneibacter gnavus, UniProt A7B557); settings: 37° C., pH 6.5
T1 sequence (A7B557 26-723): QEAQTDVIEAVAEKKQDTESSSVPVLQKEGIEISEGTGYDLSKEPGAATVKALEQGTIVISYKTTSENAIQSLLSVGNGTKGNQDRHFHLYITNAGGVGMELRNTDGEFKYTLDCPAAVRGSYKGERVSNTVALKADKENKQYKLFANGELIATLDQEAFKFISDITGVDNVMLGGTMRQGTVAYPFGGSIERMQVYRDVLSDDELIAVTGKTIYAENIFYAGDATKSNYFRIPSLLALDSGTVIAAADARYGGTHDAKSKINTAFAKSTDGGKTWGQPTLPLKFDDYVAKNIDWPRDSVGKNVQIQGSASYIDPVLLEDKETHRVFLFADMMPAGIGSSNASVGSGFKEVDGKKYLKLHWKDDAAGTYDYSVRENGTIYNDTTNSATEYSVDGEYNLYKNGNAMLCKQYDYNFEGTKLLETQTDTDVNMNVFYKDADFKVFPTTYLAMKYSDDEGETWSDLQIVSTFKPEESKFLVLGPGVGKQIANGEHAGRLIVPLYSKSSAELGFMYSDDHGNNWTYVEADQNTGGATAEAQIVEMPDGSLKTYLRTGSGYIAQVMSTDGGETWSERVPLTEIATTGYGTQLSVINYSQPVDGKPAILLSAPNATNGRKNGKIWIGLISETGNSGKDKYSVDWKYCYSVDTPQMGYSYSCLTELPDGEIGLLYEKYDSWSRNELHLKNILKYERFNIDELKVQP
Procedure: (§1) Substrate (a) 4MU-Neu5Ac or (b) PNP-Neu5Ac was incubated with RgNanH (0.22 mM and 0.43 nM respectively) at 37° C., pH 6.5 and the release of product measured using a plate-reader. (c) Inhibition of RgNanH (1.00 nM) incubated with 4MU-Neu5Ac (0.51 mM) by zanamivir (●), Neu5Ac2en (▪), Siastatin B (▴) and oseltamivir carboxylate (♦), the rates are normalised to a % of the uninhibited rate. [I] is the inhibitor concentration. (d) 3′SL was incubated with RgNanH (2.25 nM) and the release of product measured by HPAEC-PAD. Experiments were done at least in duplicate (usually triplicate) and the error bars show the standard error of the mean.

RgNanH [4] = experiment: Kinetic analysis of RgNanH with sialylated substrates; settings: 37° C., pH 6.5; for Ki: read-out: Ki (substrate inhibition)
Procedure: For 4MU-Neu5Ac and 3′SL, the rate of hydrolysis without enzyme was not significant so raw data were used. However, for pNP-Neu5Ac the rate of hydrolysis without enzyme was significant so the rate with enzyme was corrected by the subtraction of the rate without enzyme at each concentration of substrate.
Kinetic data were obtained from at least duplicate (usually triplicate) experiments, and the kinetic parameters were calculated by fitting the initial raw data to the Michaelis-Menten equation using a non-linear regression analysis program (Prism 6, GraphPad, San Diego, USA), error bars (standard error of the mean) are shown.

RgNanH [5] = biological target: T2, RgNanH (Mediterraneibacter gnavus, UniProt A7B557); experiment: Inhibition of RgNanH activity against 4MU-Neu5Ac by neuraminidase inhibitors; settings: for Inhibition of RgNanH (in words): 4MU-Neu5Ac 0.51 mM, 1 nM enzyme, Neu5Ac 0-0.3 mM, Lac 0-1.5 mM
T2 sequence (A7B557 26-723): T1 sequence (A7B557 26-723)

RgNanH [6] = biological target: T2, RgNanH; settings: 1 mg/ml glycoprotein, 37° C., pH 6.5, overnight
Procedure: Extracts (400 μL) were mixed with 200 μL of D2O and 20 μL of a solution of D2O containing 1 mM of TSP (sodium 3-(trimethylsilyl)-propionate-d4). Samples (500 μL) were transferred into a 5-mm NMR tube for spectral acquisition. The ^1H NMR spectra were recorded at 600 MHz on a Bruker Avance spectrometer (Bruker BioSpin GmbH, Rheinstetten, Germany) running Topspin 2.0 software and fitted with a cryoprobe and a 60-slot autosampler. Each ^1H NMR spectrum was acquired with 128 scans, a spectral width of 8,012.8 Hz, an acquisition time of 2.04 s, and a relaxation delay of 2.0 s. The “noesypr1d” presaturation sequence was used to suppress the residual water signal with a low-power selective irradiation at the water frequency during the recycle delay and a mixing time of 100 ms. Spectra were transformed with a 0.3-Hz line broadening, manually phased, baseline corrected, and referenced by setting the TSP methyl signal to 0 ppm.

[7] = substrate: CC(=O)N[C@H]1[C@H]([C@H](O)[C@H](O)CO)O[C@@](Oc2ccc3c(C)cc(=O)oc3c2)(C(=O)O)C[C@@H]1O; experiment: purified protein, by the assay type; settings: other: 37° C., pH 6.5, * estimated value, ± standard error of the mean
Procedure: as §1

[8] = * estimated value, ± standard error of the mean

Molecule: CO[C@@H]1O[C@H](CO)[C@@H](O[C@@H]2O[C@H](CO)[C@H](O)[C@H](O[C@]3(C(=O)O)C[C@H](O)[C@@H](NC(C)=O)[C@H]([C@H](O)[C@H](O)CO)O3)[C@H]2O)[C@H](O[C@@H]2O[C@@H](C)[C@@H](O)[C@@H](O)[C@@H]2O)[C@H]1NC(C)=O [3′ sialyl Lewis X methyl glycoside, Neu5Ac-α-2-3-Gal-β-1-4-[Fuc-a-1-3]-GlcNAc-β-OMe]
- Activity, RgNanH (RgNanH [1]): +
- Activity, AkmNan0625 and AkmNan1835 [2]: +

Molecule: CC(=O)N[C@H]1[C@H]([C@H](O)[C@H](O)CO)O[C@@](O[C@H]2[C@@H](O)[C@@H](CO)O[C@@H](O[C@H]3[C@H](O[C@@H]4O[C@@H](C)[C@@H](O)[C@@H](O)[C@@H]4O)[C@@H](O)C(O)O[C@@H]3CO)[C@@H]2O)(C(=O)O)C[C@@H]1O (stereo partly drawn) [3′ sialyl-3-fucosyllactose, Neu5Ac-α-2-3-Gal-β1-4-[Fuc-α-1-3]-Glc]
- Activity, RgNanH (RgNanH [1]): +
- Activity, AkmNan0625 and AkmNan1835 [2]: +

Molecule: CC(=O)NC1C(O)CC(OC2C(O)C(O)OC(CO)C2O)(C(=O)O)OC1C(O)C(O)CO (stereo not drawn) [3′ sialylgalactose, Neu5Ac-α-2-3-Gal]
- Activity, RgNanH (RgNanH [1]): +
- Activity, AkmNan0625 and AkmNan1835 [2]: +

Molecule: CC(=O)N[C@H]1[C@H]([C@H](O)[C@H](O)CO)O[C@@](O[C@H]2[C@@H](O)[C@@H](CO)O[C@@H](O[C@H]3[C@H](O[C@@H]4O[C@@H](C)[C@@H](O)[C@@H](O)[C@@H]4O)[C@@H](NC(C)=O)C(O)O[C@@H]3CO)[C@@H]2O)(C(=O)O)C[C@@H]1O (stereo partly drawn) [3′-sialyl Lewis X, Neu5Ac-α-2-3-Gal-β-1-4-[Fuc-a1-3]-GlcNAc]
- Activity, RgNanH (RgNanH [1]): +
- Activity, AkmNan0625 and AkmNan1835 [2]: +

Molecule: CC(=O)N[C@H]1[C@H]([C@H](O)[C@H](O)CO)O[C@@](O[C@H]2[C@@H](O)[C@@H](CO)O[C@@H](O[C@H]3[C@H](O)[C@@H](O)C(O)O[C@@H]3CO)[C@@H]2O)(C(=O)O)C[C@@H]1O (stereo partly drawn) [3′SL, Neu5Ac-α-2-3-Gal-β-1-4-Glc]
- KM [3, 8]: below detection limit
- Km [3, 8]: < 100 µM
- kcat/KM ([3]; ** calculated using estimated value): >>2.57 × 10^2** min^−1 · mM^−1
- KM (RgNanH [4]): below detection limit
- Km (RgNanH [4]): < 100 µM
- Vmax (RgNanH [4]): 0.0566 ± 0.0057 µM/min
- kcat (RgNanH [4]): 25.7 min⁻¹ and 25.70 min⁻¹
- Ki (RgNanH [4]): 0.76 mM
- Activity, RgNanH (RgNanH [1]): +
- Activity of AkmNan0625 and AkmNan1835 on substrate (in words) [2]: active
- Activity, AkmNan0625 and AkmNan1835 [2]: +

Molecule: CC(=O)N[C@H]1[C@H]([C@H](O)[C@H](O)CO)O[C@@](Oc2ccc3c(C)cc(=O)oc3c2)(C(=O)O)C[C@@H]1O [4MU-Neu5Ac, 2′-(4-Methylumbelliferyl)-α-D-N-acetylneuraminic acid]
- Km (RgNanH [4]): 590 µM
- kcat (RgNanH [4]): 6210 min⁻¹
- Ki (RgNanH [4]): 2.37 mM

Molecule: CC(=O)N[C@H]1[C@H]([C@H](O)[C@H](O)CO)OC(OC[C@H]2OC(O)[C@H](O)[C@@H](O)[C@H]2O)(C(=O)O)C[C@@H]1O (stereo partly drawn) [6′ sialylgalactose, Neu5Ac-α-2-6-Gal]
- Activity, AkmNan0625 and AkmNan1835 [2]: +

Molecule: OC[C@H]1O[C@@H](O[C@H]2[C@H](O)[C@@H](O)C(O)O[C@@H]2CO)[C@H](O)[C@@H](O)[C@H]1O (some centres unmarked) [Lactose]
- Inhibition of RgNanH (in words) (RgNanH [5]): not inhibited

Molecule: CC(=O)NC1C(O)C=C(C(=O)O)OC1C(O)C(O)CO [Neu5Ac2en, 2-deoxy-2,3-didehydro-D-N-acetylneuraminic acid]
- IC50 (RgNanH [5]; IC50, Table 2, substrate 4MU-Neu5Ac 0.51 mM, RgNanH 1.00 nM): 1.41 mM
- IC50 (RgNanH [5]; IC50, substrate 4MU-Neu5Ac): 1.4 mM

Molecule: CC(=O)N[C@H]1[C@H]([C@H](O)[C@H](O)CO)OC(O)(C(=O)O)C[C@@H]1O (some centres unmarked) [Neu5Ac, N-Acetylneuraminic acid]
- Inhibition of RgNanH (in words) (RgNanH [5]): not inhibited

Molecule: CC(=O)NC1C(O)CC(Oc2ccc([N+](=O)[O-])cc2)(C(=O)O)OC1C(O)C(O)CO [PNP-Neu5Ac, 2-O-(p-Nitrophenyl)-α-D-N-acetylneuraminic acid]
- KM (RgNanH [4]): high
- Km (RgNanH [4]): > 25000 µM
- kcat (RgNanH [4]): <152** min^−1

Molecule: CC(=O)N[C@H]1[C@H]([C@H](O)[C@H](O)CO)O[C@@](Oc2ccc([N+](=O)[O-])cc2)(C(=O)O)C[C@@H]1O [PNP-Neu5Ac, 2-O-(p-Nitrophenyl)-α-D-N-acetylneuraminic acid]
- KM [3, 8]: high KM

Molecule: CC(=O)N[C@H]1NC[C@H](C(=O)O)[C@H](O)[C@@H]1O [Siastatin B]
- IC50 (RgNanH [5]; Table 2, substrate 4MU-Neu5Ac 0.51 mM, RgNanH 1.00 nM): 0.00487 mM

Molecule: CC(=O)N[C@H]1[C@H]([C@H](O)[C@H](O)CO)OC(C(=O)O)=C[C@@H]1N=C(N)N [Zanamivir, 4-guanidino-Neu5Ac2en]
- IC50 (RgNanH [5]; substrate 4MU-Neu5Ac): 11.9 mM

Molecule: Neu5Ac-α-2-3-Gal-β-1-4-GlcNAc [3′-α-sialyl-N-acetyllactosamine]
- Activity, RgNanH (RgNanH [1]): +
- Activity, AkmNan0625 and AkmNan1835 [2]: +

Molecule: Neu5Ac-α-2-6-Gal-β1-4-Glc [6′SL]
- Enzymatic activity of RgNanH on substrate (in words) (RgNanH [1]): no enzymatic activity
- Activity of AkmNan0625 and AkmNan1835 on substrate (in words) [2]: active
- Activity, AkmNan0625 and AkmNan1835 [2]: +

Molecule: Neu5Ac-α-2-6-Gal-β-1-4-GlcNAc [6′-α-sialyl-N-acetyllactosamine]
- Activity, AkmNan0625 and AkmNan1835 [2]: +

Molecule: asialo-fetuin
- Activity of RgNanH against glycoprotein (2,7-anhydro-Neu5Ac peaks by 1H NMR) (RgNanH [6]): no change

B1: Ruminococcus gnavus ATCC 29149 sialidase RgNanH (intramolecular trans-sialidase, IT-sialidase), wild type, full length excluding signal sequence residues 1-25, … (protein)
chain: T1 sequence (A7B557 26-723)
- Km [7]: 590 ± 170 µM
- Vmax [7]: 1.37 µM/min
- kcat [7]: 104 s⁻¹
- kcat/Km [7]: 175000 M⁻¹ s⁻¹
